System: 188146-221-R-J1-PDC complex spheroid viability
Assay: Anticancer human tumor 188146-221-R-J1-PDC patient-derived colon adenocarcinoma cell line growth inhibition [POLQ]
Conditions: for IC50: curve of first compound; for viability, T/C: stronger effect = lower value
Method in brief: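 PDC + HUVEC + MSC complex spheroids; POLQ inhibitors ± partner drugs; top conc. at/near clinical Cmax, else 10 microM (SN-38 1 microM), half-log dilutions; 37 degrees C, 5% CO2.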

[1] = second compound 0.0316 µM, first compound 0.0316 µM
[2] = second compound 0.0316 µM, first compound 0.1 µM
[3] = second compound 0.0316 µM, first compound 0.316 µM
[4] = second compound 0.0316 µM, first compound 1 µM
[5] = second compound 0.0316 µM, first compound 3.16 µM
[6] = second compound 0.0316 µM, first compound 10 µM
[7] = second compound 0.1 µM, first compound 0.0316 µM
[8] = second compound 0.1 µM, first compound 0.1 µM
[9] = second compound 0.1 µM, first compound 0.316 µM
[10] = second compound 0.1 µM, first compound 1 µM
[11] = second compound 0.1 µM, first compound 3.16 µM
[12] = second compound 0.1 µM, first compound 10 µM
[13] = second compound 0.316 µM, first compound 0.0316 µM
[14] = second compound 0.316 µM, first compound 0.1 µM
[15] = second compound 0.316 µM, first compound 0.316 µM
[16] = second compound 0.316 µM, first compound 1 µM
[17] = second compound 0.316 µM, first compound 3.16 µM
[18] = second compound 0.316 µM, first compound 10 µM
[19] = second compound 1 µM, first compound 0.0316 µM
[20] = second compound 1 µM, first compound 0.1 µM
[21] = second compound 1 µM, first compound 0.316 µM
[22] = second compound 1 µM, first compound 1 µM
[23] = second compound 1 µM, first compound 3.16 µM
[24] = second compound 1 µM, first compound 10 µM
[25] = second compound 3.16 µM, first compound 0.0316 µM
[26] = second compound 3.16 µM, first compound 0.1 µM
[27] = second compound 3.16 µM, first compound 0.316 µM
[28] = second compound 3.16 µM, first compound 1 µM
[29] = second compound 3.16 µM, first compound 3.16 µM
[30] = second compound 3.16 µM, first compound 10 µM
[31] = second compound 10 µM, first compound 0.0316 µM
[32] = second compound 10 µM, first compound 0.1 µM
[33] = second compound 10 µM, first compound 0.316 µM
[34] = second compound 10 µM, first compound 1 µM
[35] = second compound 10 µM, first compound 3.16 µM
[36] = second compound 10 µM, first compound 10 µM
[37] = second compound 0.0316 µM, first compound 0.00316 µM
[38] = second compound 0.0316 µM, first compound 0.01 µM
[39] = second compound 0.1 µM, first compound 0.00316 µM
[40] = second compound 0.1 µM, first compound 0.01 µM
[41] = second compound 0.316 µM, first compound 0.00316 µM
[42] = second compound 0.316 µM, first compound 0.01 µM
[43] = second compound 1 µM, first compound 0.00316 µM
[44] = second compound 1 µM, first compound 0.01 µM
[45] = second compound 3.16 µM, first compound 0.00316 µM
[46] = second compound 3.16 µM, first compound 0.01 µM
[47] = second compound 10 µM, first compound 0.00316 µM
[48] = second compound 10 µM, first compound 0.01 µM
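Further: spheroids exposed to compounds for seven days.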
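Wherever viability, T/C is given: 100% = DMSO vehicle control viability.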

CCCS(=O)(=O)Nc1ccc(F)c(C(=O)c2c[nH]c3ncc(-c4ccc(Cl)cc4)cc23)c1F + Cc1cccc(N(C)C(=O)C2C(O)CCN2c2nc(C)cc(C(F)(F)F)c2C#N)c1
IC50 (second compound 0.0316 µM): 9.75 µM | IC50 (second compound 0.1 µM): 6.82 µM | IC50 (second compound 0.316 µM): 6.53 µM | IC50 (second compound 1 µM): 6.44 µM | IC50 (second compound 3.16 µM): 7.14 µM | IC50 (second compound 10 µM): 5.88 µM | viability, T/C [1]: 117% | viability, T/C [2]: 96.5% | viability, T/C [3]: 102% | viability, T/C [4]: 87.1% | viability, T/C [5]: 78.8% | viability, T/C [6]: 47.3% | viability, T/C [7]: 113% | viability, T/C [8]: 97.3% | viability, T/C [9]: 106% | viability, T/C [10]: 91% | viability, T/C [11]: 85.8% | viability, T/C [12]: 33.4% | viability, T/C [13]: 116% | viability, T/C [14]: 112% | viability, T/C [15]: 99.2% | viability, T/C [16]: 88.3% | viability, T/C [17]: 90.9% | viability, T/C [18]: 29.2% | viability, T/C [19]: 93.4% | viability, T/C [20]: 98.1% | viability, T/C [21]: 101% | viability, T/C [22]: 90.6% | viability, T/C [23]: 81.5% | viability, T/C [24]: 30.7% | viability, T/C [25]: 107% | viability, T/C [26]: 104% | viability, T/C [27]: 104% | viability, T/C [28]: 77.4% | viability, T/C [29]: 96.4% | viability, T/C [30]: 31% | viability, T/C [31]: 106% | viability, T/C [32]: 97.7% | viability, T/C [33]: 105% | viability, T/C [34]: 85.1% | viability, T/C [35]: 92.6% | viability, T/C [36]: 13.4%

CCc1c2c(nc3ccc(O)cc13)-c1cc3c(c(=O)n1C2)COC(=O)[C@]3(O)CC + Cc1cccc(N(C)C(=O)C2C(O)CCN2c2nc(C)cc(C(F)(F)F)c2C#N)c1
IC50 (second compound 0.0316 µM): 0.0187 µM | IC50 (second compound 0.1 µM): 0.0247 µM | IC50 (second compound 0.316 µM): 0.0243 µM | IC50 (second compound 1 µM): 0.0238 µM | IC50 (second compound 3.16 µM): 0.0221 µM | IC50 (second compound 10 µM): 0.0168 µM | viability, T/C [37]: 106% | viability, T/C [38]: 64.3% | viability, T/C [1]: 39.6% | viability, T/C [2]: 17.9% | viability, T/C [3]: 11.2% | viability, T/C [4]: 6.74% | viability, T/C [39]: 102% | viability, T/C [40]: 81.4% | viability, T/C [7]: 39.9% | viability, T/C [8]: 19.9% | viability, T/C [9]: 10.1% | viability, T/C [10]: 8.21% | viability, T/C [41]: 99.1% | viability, T/C [42]: 87.7% | viability, T/C [13]: 38.2% | viability, T/C [14]: 15.9% | viability, T/C [15]: 11.5% | viability, T/C [16]: 6.74% | viability, T/C [43]: 101% | viability, T/C [44]: 78.2% | viability, T/C [19]: 40.7% | viability, T/C [20]: 17.3% | viability, T/C [21]: 9.53% | viability, T/C [22]: 8.73% | viability, T/C [45]: 86.1% | viability, T/C [46]: 73.7% | viability, T/C [25]: 39.1% | viability, T/C [26]: 16.7% | viability, T/C [27]: 13.6% | viability, T/C [28]: 8.63% | viability, T/C [47]: 92.2% | viability, T/C [48]: 65.1% | viability, T/C [31]: 31.2% | viability, T/C [32]: 17% | viability, T/C [33]: 15.2% | viability, T/C [34]: 9.83%

CNCc1ccc(-c2[nH]c3cc(F)cc4c3c2CCNC4=O)cc1 + Cc1cccc(N(C)C(=O)C2C(O)CCN2c2nc(C)cc(C(F)(F)F)c2C#N)c1
IC50 (second compound 0.0316 µM): > 10 µM | IC50 (second compound 0.1 µM): > 10 µM | IC50 (second compound 0.316 µM): > 10 µM | IC50 (second compound 1 µM): > 10 µM | IC50 (second compound 3.16 µM): > 10 µM | IC50 (second compound 10 µM): > 10 µM | viability, T/C [1]: 98.6% | viability, T/C [2]: 103% | viability, T/C [3]: 101% | viability, T/C [4]: 97.3% | viability, T/C [5]: 114% | viability, T/C [6]: 105% | viability, T/C [7]: 108% | viability, T/C [8]: 98.6% | viability, T/C [9]: 102% | viability, T/C [10]: 104% | viability, T/C [11]: 108% | viability, T/C [12]: 112% | viability, T/C [13]: 112% | viability, T/C [14]: 105% | viability, T/C [15]: 106% | viability, T/C [16]: 103% | viability, T/C [17]: 106% | viability, T/C [18]: 108% | viability, T/C [19]: 109% | viability, T/C [20]: 103% | viability, T/C [21]: 97.7% | viability, T/C [22]: 109% | viability, T/C [23]: 100% | viability, T/C [24]: 110% | viability, T/C [25]: 112% | viability, T/C [26]: 112% | viability, T/C [27]: 95.1% | viability, T/C [28]: 84.1% | viability, T/C [29]: 112% | viability, T/C [30]: 110% | viability, T/C [31]: 99.4% | viability, T/C [32]: 83.2% | viability, T/C [33]: 100% | viability, T/C [34]: 93.8% | viability, T/C [35]: 106% | viability, T/C [36]: 101%

Cn1ncnc1[C@H]1c2n[nH]c(=O)c3cc(F)cc(c23)N[C@@H]1c1ccc(F)cc1 + Cc1cccc(N(C)C(=O)C2C(O)CCN2c2nc(C)cc(C(F)(F)F)c2C#N)c1
IC50 (second compound 0.0316 µM): > 0.1 µM | IC50 (second compound 0.1 µM): > 0.1 µM | IC50 (second compound 0.316 µM): > 0.1 µM | IC50 (second compound 1 µM): > 0.1 µM | IC50 (second compound 3.16 µM): > 0.1 µM | IC50 (second compound 10 µM): > 0.1 µM | viability, T/C (second compound 0.0316 µM, first compound 0.000316 µM): 97.2% | viability, T/C (second compound 0.0316 µM, first compound 0.001 µM): 97.4% | viability, T/C [37]: 91.8% | viability, T/C [38]: 98.3% | viability, T/C [1]: 99.3% | viability, T/C [2]: 88% | viability, T/C (second compound 0.1 µM, first compound 0.000316 µM): 106% | viability, T/C (second compound 0.1 µM, first compound 0.001 µM): 107% | viability, T/C [39]: 101% | viability, T/C [40]: 84.8% | viability, T/C [7]: 89.9% | viability, T/C [8]: 103% | viability, T/C (second compound 0.316 µM, first compound 0.000316 µM): 101% | viability, T/C (second compound 0.316 µM, first compound 0.001 µM): 104% | viability, T/C [41]: 101% | viability, T/C [42]: 101% | viability, T/C [13]: 90.8% | viability, T/C [14]: 104% | viability, T/C (second compound 1 µM, first compound 0.000316 µM): 107% | viability, T/C (second compound 1 µM, first compound 0.001 µM): 99.6% | viability, T/C [43]: 105% | viability, T/C [44]: 102% | viability, T/C [19]: 89% | viability, T/C [20]: 93.5% | viability, T/C (second compound 3.16 µM, first compound 0.000316 µM): 100% | viability, T/C (second compound 3.16 µM, first compound 0.001 µM): 105% | viability, T/C [45]: 95.4% | viability, T/C [46]: 90% | viability, T/C [25]: 95.4% | viability, T/C [26]: 94.2% | viability, T/C (second compound 10 µM, first compound 0.000316 µM): 96.4% | viability, T/C (second compound 10 µM, first compound 0.001 µM): 91.8% | viability, T/C [47]: 90.6% | viability, T/C [48]: 87.8% | viability, T/C [31]: 90.8% | viability, T/C [32]: 94.6%

From PubChem BioAssay AID1963851 (Molecular Pharmacology Branch, DTP, NCI, 2024)
